From patent US20240335431A1, “1-H-PYRROLO[2,3-c]PYRIDINE COMPOUNDS” (Acerta Pharma B.V., priority 2023, published 2024)

System: DFAL-49600
Experiment: MLLr AML patient derived disseminated xenograft model DFAL-49600
Format: in vivo, female NSG mice
Conditions: 150 mg/kg oral twice daily, 21 days
Description: Viably frozen A. CBAM-68552, B. CBAM-44728, and C. DFAL-49600 single cell suspensions from spleens of donor mice were prepared into frozen stock. Flow cytometry antibodies for Ter119 (Miltenyi 130-112-914), mouse CD45 (Miltenyi 130-110-665), and human CD45 (Miltenyi 130-110-634) and Fixable Live Dead Stain (ThermoFisher; #L34963) for disease evaluation via flow cytometry on MACSQuant (Miltenyi). Compound 56-2 was formulated in water at pH 4.5-5 using 1M MSA as pH-adjusting agent at concentrations up to 100 mg/mL to achieve a uniform suspension and dosed twice daily by oral gavage 10 mL/kg.
A. CBAM-68552, B. CBAM-44728, and C. DFAL-49600 cells were thawed and 1 million cells implanted via the tail vein in to female NSG mice. Mice were randomized into groups of 5 when human CD45 levels reached average of A. CBAM-68552 6.5%, B. CBAM-44728 4.8%, and C. DFAL-49600 12.4% in the bone marrow of satellite animals. Mice were treated for 21 days with vehicle (water at pH 4.5-5 using 1 M MSA) or Compound 56-2 at 150 mg/kg. Compound 56-2 was dosed orally twice daily 8/16 hours apart and mice were monitored for overall survival. FIGS. 3-A, 3-B, and 3-C further illustrate the effect of treatment with Compound 56-2 in human MLLr AML Patient Derived Disseminated Xenograft Models A. CBAM-68552, B. CBAM-44728, and C. DFAL-49600, respectively.

Cc1c(C(=O)C2CCN(C(=O)[C@@H]3CCC(C)(C)N3)CC2)c2ccncc2n1-c1ccc(F)cc1C(=O)N(C(C)C)C(C)C (single isomer, unassigned) [Compound 56-2]
LATENCY (overall survival): 161 days
